# According to US9511086B2, “Method for improving immune system function by administering agents that inhibit DNA-dependent protein kinase-directed apoptosis” (The Board of Trustees of the Leland Stanford Junior …, priority 2010, dated 2016):
# What was measured:
# [1] = system: CD4+CD45RO− T cells from control donors; assay: T-cell apoptosis by flow cytometry staining for PI, control T cells; type: cell-based, human
# Procedure: FIG. 5. Inhibition of DNA-PKcs activity protects RA T cells from apoptosis. CD4+CD45RO− T cells were isolated from 6 control donors and 7 RA patients. Cells were maintained in culture without stimulation for 48 h and then were treated with the DNA-PKcs inhibitor IC86621 (50 nM, 100 nM) or vehicle for 24 h. Cells were harvested and (A) T-cell apoptosis was measured by flow cytometry staining for PI. Representative cytometric data from one patient and one control are shown. (B) Frequencies of PI-positive T-cells in the absence and presence of the DNA-PKcs inhibitor from 6 controls and 7 RA patients are presented as mean±SEM.
# Peripheral blood mononuclear cells (PBMC) were separated from whole blood with Lymphocyte Separation Medium (Mediatech Inc., Herndon, Va.). CD45RO^− cells were negatively selected with microbeads (Miltenyi Biotec Inc., Auburn, Calif.), and the naïve CD4^+CD45RO^− population was subsequently selected with CD4 microbeads (autoMACS, Miltenyi Biotec Inc.). […]
# To quantify T-cell apoptosis, CD4^+CD45RO^− cells were washed and suspended in 500 μl FACS buffer supplemented with EasyComp Blank Particles (Spherotech, Lake Forest, Ill.). Uptake of PI (Sigma-Aldrich) was determined by flow cytometry. Apoptotic cells were detected with PE-Annexin V (BD Biosciences, San Jose, Calif.) and 7-AAD (BD Biosciences).
# Bmf = Bmf protein level by flow cytometry in RA T cells; type: cell-based, human; details: treated vs untreated
# Procedure: FIG. 8. The DNA-PKcs-JNK pathway upregulates the apoptogenic molecules Bim and Bmf in RA CD4+ T cells. CD4+CD45RO− T cells were isolated from the peripheral blood of 6 controls and 6 RA patients. Cells were maintained in culture without mitogenic stimulation for 72 h. (A) Puma, Noxa, Bim and Bmf transcript levels in freshly isolated cells were quantified by qPCR. Data are presented as mean±SEM. (B) Flow cytometry analysis of Bim levels in control and RA naïve T cells after 72 h of culture. Expression of Bim protein in n=5 RA and n=5 controls samples is given as MFI of Alexa Fluor 488 Bim. (C) Flow cytometry analysis of Bmf levels in control and RA naïve T cells. Expression of Bmf protein in n=6 RA and n=4 controls samples is given as MFI of PE Bmf. (D) Bcl-2 protein levels were analyzed by flow cytometry. Expression of Bcl-2 protein in n=6 RA and n=6 control samples is given as MFI of FITC Bcl-2. (E) Bim protein level in the absence and presence of the DNA-PKcs inhibitor were analyzed by flow cytometry in samples from 4 RA patients. […]
# For intracellular staining, cells were fixed directly with 1.5% formaldehyde for 10 min at room temperature and resuspended in 90% methanol. […] Proteins or 8-oxoguanine expression were detected by an LSRII flow cytometer (BD Biosciences). Data were analyzed by FlowJo software (Tree Star Inc., Ashland, Oreg.). […]
# protein kinase C = details: concentrations of up to 100 μM; cited from earlier work
smiles,measurement,setting,value
"CC(=O)c1ccc(N2CCOCC2)cc1O [IC86621, 1-(2-hydroxy-4-morpholin-4-ylphenyl)ethanone]",apoptotic control T cells,"[1]; after 72 h of ex vivo culture, independent from treatment with the inhibitor",12-14%
same,survival in control T cells,"[1]; control T cells, inhibitor 50 nM, 100 nM for 24 h",essentially did not affect survival
same,intracellular Bmf levels,Bmf,reduced
same,activity against protein kinase C,protein kinase C,neither activity
